Patent publication US20220347256A1, “COMPOSITION FOR PROMOTING HAIR GROWTH, AND ALLEVIATING AND TREATING HAIR LOSS INCLUDING SUBSTANCE P” (Biosolution Co., Ltd., priority 2019, published 2022)
Where no end group is shown, it is not given here.

Experiments:
C3H/HeN mice [1] = experiment: Maintenance of skin in growth phase in C3H mice with dexamethasone-induced regression phase (black skin area); format: in vivo
Procedure: More specifically, ketamine (Yuhan Co, Ltd, Korea) and rompun (Bayer Korea, Korea) were mixed to a final concentration of 24.2 mg/mL and 1.8 mg/mL, respectively, and then six-week-old female C3H/HeN mice (Orient Bio, Korea) were anesthetized with 80 μL of the anesthetic solution. After anesthesia, the hair on the back was removed using a clipper, and the remaining hair was completely removed using a hair removal cream. Then, twelve mice with clean skin without wounds or remaining hair at the hair removal site were selected. Three mice were placed in each group so that mice with similar hair cycle were placed in each group, and thereafter the experiment was carried out. The phosphate buffered saline or the composition including the substance P at 50% concentration was intradermally injected in an amount of 50 μL each for a total of 200 μL at four sites on the back of the mice, at intervals of 3 to 4 days for 7 days from 6 days after the hair removal using an insulin syringe. […] One-way ANOVA was carried out to examine the difference between the entire groups, and the difference between individual means was analyzed using Tukey's test. […] This statistic was analyzed based on Prism software version 5. […]

C3H/HeN mice [2] = experiment: H&E histology, thickness and shape of skin in C3H mice with dexamethasone-induced regression phase; format: in vivo; settings: in combination with dexamethasone
Procedure: More specifically, after the procedure of Example 7, the skin tissue of the mice was collected in the direction of the hair follicles and fixed in a fixing solution (4% formaldehyde, Sigma, USA) for 24 hours. […] Thereafter, an infiltration process was carried out to fill the penetrant into the tissue, followed by an embedding process to make a paraffin block. For hematoxylin (Sigma, USA) and eosin (Sigma, USA) staining, the paraffin block was cut into 8 μm and attached to slides (microscope slides, Marienfeld, Germany) coated with 2% 3-aminosilane, followed by drying in a 37° C. slide warmer for 12 hours. Thereafter, the slides were immersed in xylene four times for 7 minutes each through a deparaffinization process, and subjected to hydration for staining, and then washed with water. […] One-way ANOVA was carried out to examine the difference between the entire groups, and the difference between individual means was analyzed using Tukey's test. […] This statistic was analyzed based on Prism software version 5.
Additionally, the thickness of the dermis and the subcutaneous layers was confirmed by the Image J program. Skin thickness was measured by dividing the skin into the dermal layer (D), subcutaneous layer (SC), and whole layer (W), and 30 different areas were measured for each group and the results are shown in the graph of FIG. 13.

C3H/HeN mice [3] = experiment: Number of hair follicles in skin of C3H mice with dexamethasone-induced regression phase; format: in vivo; settings: in combination with dexamethasone
Procedure: More specifically, after the procedure of Example 7, the skin tissue of the mice was collected in the direction vertical to the hair follicles and fixed in a fixing solution (4% formaldehyde, Sigma, USA) for 24 hours. The hematoxylin and eosin staining was carried out in the same manner as in Example 8.
Additionally, the number of hair follicles in 1 mm of skin was measured for each group by the Image J program. The number of hair follicles were measured in 10 tissues per group by dividing the skin into D, SC, and W layers, and the results are shown in the graph of FIG. 15.

dermal papilla cells = experiment: MTT assay of dermal papilla cell proliferation; format: cell-based; settings: 24 hours, concentration groups 30% and 50%
Procedure: The effect of substance P on dermal papilla cell proliferation was analyzed by MTT assay.
More specifically, 1,000 μL of 0.5×10^5 CFU/mL dermal papilla cell suspension was added to a 12-well culture plate and incubated for 48 hours. The medium (alpha-Minimum Essential Medium, alpha-MEM+10% FBS) was removed, and then 900 μL of a fresh medium (alpha-Minimum Essential Medium, alpha-MEM +5% FBS) was dispensed into each well, and then 100 μL of the composition including substance P diluted with phosphate buffered saline (PBS) was inoculated at concentrations of 30% and 50% (the substance P was contained at a concentration of 6 mg/mL and 10 mg/mL in the composition with concentrations of 30% and 50%, respectively). Additionally, substance P (30% and 50%) at the same concentrations as the composition including substance P was respectively mixed with phosphate buffered saline and treated.
Meanwhile, 100 μL of phosphate buffered saline was used as a negative control group. After inoculation, cells were incubated at 37° C. for 24 hours, and then the medium was removed. Then, the cells were washed with phosphate buffered saline three times. […] Finally, the cells were washed with phosphate buffered saline and stirred in 150 μL of isopropyl alcohol solution for 3 hours, and absorbance at 570 nm was measured.

germinal matrix cells = experiment: MTT assay of germinal matrix cell proliferation; format: cell-based; settings: 24 hours, concentration groups 30% and 50%
Procedure: The effect of substance P on germinal matrix cell proliferation was analyzed by MTT assay.
More specifically, 1,000 μL of 0.5×10^5 CFU/mL germinal matrix cell suspension was added to a 12-well culture plate and incubated for 48 hours. The medium (alpha-Minimum Essential Medium, alpha-MEM+10% FBS+10 ng/ml bFGF) was removed, and then 900 μL of a fresh medium (alpha-Minimum Essential Medium, alpha-MEM+5% FBS+5 ng/ml bFGF) was dispensed into each well, and then 100 μL of the composition including substance P diluted with phosphate buffered saline (PBS) was inoculated at concentrations of 30% and 50%. Additionally, substance P (30% and 50%) at the same concentration as the composition including substance P was respectively mixed with phosphate buffered saline and treated. Meanwhile, 100 μL of phosphate buffered saline was used as a negative control group. After inoculation, cells were incubated at 37° C. for 24 hours, and then the medium was removed. Then, the cells were washed with the phosphate buffered saline three times. Subsequently, 900 μL of the medium was mixed with 100 μL of the MTT solution (0.5 mg/mL), and the mixed solution was treated to each well and allowed to react at 37° C. for 3 hours. Finally, the cells were washed with the phosphate buffered saline and stirred in 150 μL of isopropyl alcohol solution for 3 hours, and absorbance at 570 nm was measured.

Row | Molecule | inhibition of the induction of the regression phase by dexamethasone (C3H/HeN mice [1]; from black skin area) [%] | black-skinned back relative to the total skin (C3H/HeN mice [1]; in combination with dexamethasone, 17 days after hair removal, Image J) [%] | inhibition of the regression phase of the subcutaneous layer (SC) compared to phosphate buffered saline (C3H/HeN mice [2]) [%] | number of hair follicles maintained in the dermis compared to phosphate buffered saline (C3H/HeN mice [3]) | number of hair follicles maintained in the subcutaneous compared to phosphate buffered saline (C3H/HeN mice [3]) | number of hair follicles maintained in the whole skin compared to phosphate buffered saline (C3H/HeN mice [3]) | cell proliferation of dermal papilla cells (dermal papilla cells) [%] | cell proliferation of germinal matrix cells (germinal matrix cells) [%]
1 | Nc1cc(N2CCCCC2)nc(N)[n+]1[O-] [minoxidil 2%, minoxidil] | 46 | 47 | 233 | about 1.4 times | about 56 times | about 3.7 times |  | 
2 | Arg-Pro-Lys-Pro-Gln-Gln-Phe-Phe-Gly-Leu-Met-NH2 (RPKPQQFFGLM-NH2) [substance P, in phosphate buffered saline as comparison group] |  |  |  |  |  |  | 107 | ≤ 105
